Tested on: subjects suffering from psoriasis
Assay: Previous treatment(s) of the subjects (anamnesis)
Format: in vivo, human
Details: Subject 4; previous treatment supplemented with moisturisers and emollients; responded well at first, more frequent relapses later
Source text: The subject had been diagnosed with psoriasis for nearly 25 years ago and had previously used combinations of local corticosteroids and emollient and moisturizing creams. Further, the subject had also tried photo therapy as well as a topical tar based product (Skillingarydsalvan Original). […] Further, the subject experienced side-effects (e g skin damage, such as skin thinning, changes in pigmentation, easy bruising, stretch marks, redness and dilated surface blood vessels) typically seen with treatment with corticosteroids.
Previous treatment(s): The subject had used corticosteroids such as mometasone furoate, prednicarbate and most recently calcitriol, always supplementing the treatment with moisturisers and emollients.

Structure (SMILES) | effect of previous treatment over time
C[C@@H]1C[C@H]2[C@@H]3CCC4=CC(=O)C=C[C@]4(C)[C@@]3(Cl)[C@@H](O)C[C@]2(C)[C@@]1(OC(=O)c1ccco1)C(=O)CCl [mometasone furoate] | no longer as effective
C=C1/C(=C\C=C2/CCC[C@]3(C)[C@@H]([C@H](C)CCCC(C)(C)O)CC[C@@H]23)C[C@@H](O)C[C@@H]1O [calcitriol] | no longer as effective
CCOC(=O)O[C@]1(C(=O)COC(=O)CC)CC[C@H]2[C@@H]3CCC4=CC(=O)C=C[C@]4(C)[C@H]3[C@@H](O)C[C@@]21C [prednicarbate] | no longer as effective
